Measurements reported in US20260007651A1, “Effect of YEL002 on Conditions and Diseases” (RadMit, Inc., priority 2022, published 2026).

What was measured:
[1] = test system: mice irradiated with an LD100; assay: Radiation mitigation: survival of mice irradiated with an LD100; type: in vivo
Description: There were 10 primary hits and 6 confirmed hits and 2 of them were used in mice. Mice were irradiated with an LD100 after which 100% of the mice died after 10 to 15 days. When the researchers injected YEL002 IP into the irradiated mice 24 hours after radiation and another four doses in 24 hours intervals 100% of the mice, so all mice which would otherwise have died survived which was a highly significant difference. Many lived a normal life span of more than 2 years which is interesting since other labs which isolated other compounds their mice died of late radiation effects much earlier.

[2] = test system: ATM-deficient mice; assay: Lifespan of ATM-deficient mice injected weekly; type: in vivo; conditions: ATM-deficient mice injected every week during most of their lifespans
[3] = test system: lymphoma; assay: Lymphoma incidence in mice (National Institute of Health experiment); type: in vivo; conditions: radiation exposure caused 90% to develop lymphoma without treatment
Description: This was observed after treating mice right after birth, if humans are treated later in life it is possible that only 10 or 5 years are added and probably more for DNA repair deficient diseases like ataxia telangiectasia (ATM) which is still very substantial.

[4] = test system: three different cancer cell lines; assay: Radiation killing of cancer cell lines; type: cell-based
[5] = test system: human keratinocytes; assay: Proteomics study of induced proteins; type: cell-based
Source text: In terms of mechanism of action in a proteomics study, the chemical was capable of inducing 244 different proteins in human keratinocytes, which comprised anti-inflammatory proteins, a number of DNA repair proteins, and even some neuroprotective proteins. It is known that turtles at the Galapagos Islands live 150 or more years without cancer and have multiple copies of DNA repair genes and anti-inflammatory genes. The compound boosts the expression of these genes in mammals. Since it induces DNA repair and is anti-inflammatory, it may be possible to prevent and cure many diseases and extend the life. In addition, patients are using the compound to try to treat Alzheimer's, multiple sclerosis, alopecia, diabetes, to prevent prostate cancer, to increase testosterone level, etc. People report feeling more energetic, less tired, and less combative and become nicer.

[6] = Side effects observed; conditions: in vivo
Source text: It is also observed that three different cancer cell lines were not protected from radiation killing by YEL002, which indicates a use in radiation oncology or chemotherapy where the tumor can still be killed by the radiation, or chemotherapy but YEL002 protects the rest of the body from radiation or chemotherapy damage, and inhibits secondary carcinogenesis.

[7] = Solubility / appearance; type: physicochemical
Description: The compound takes the appearance of an off-white powder and is fat soluble. One takes a quarter teaspoon or about 0.5 g dissolved in a couple of teaspoons of oil. In an exemplary embodiment, it is dissolved in grape seed oil and taken twice a day, once in the morning and once in the evening. It is easy to use and has almost no taste.

[8] = Case study, eight weeks of use (coughing, diarrhea); type: in vivo, human; conditions: used for eight weeks
Source text: It has also beneficial effects on the skin and one needs less of a cosmetic cream containing the same compound.

[9] = User study: periodontics or receding gums; parameters: species or system human; conditions: in vivo
Source text: In a user study, the patient's periodontics or receding gums were healed and no longer needed to floss teeth as much, since the teeth are now perfectly aligned and close together without a space in between.

[10] = Eye sight, eye exam in an ophthalmology office; type: in vivo, human
Description: The patient also observed no longer needing eyeglasses after 55 years of wearing them, and after 4 weeks with the drug, the subject can see much better than anybody their age. According to the patient, the compound fixed 2 diopters and 1 astigmatism of eye sight deficiency in only 4 weeks. An eye exam was conducted in an ophthalmology office. […] In every subject using the chemical the eye background is completely green, because YEL002 benefits the retina and optic nerve.

[11] = Patient testimonial: veins and blood; conditions: human, in vivo
Source text: His blood is thinner, since proinflammatory factors make platelets sticky and cause blood clots. Thus, it prevents or treats blood clots.

[12] = Patient testimonial: elevated levels of liver damage; type: in vivo, human; conditions: after two days of treatment; twice elevated for 25 years before
[13] = Patient testimonial: subject on chemotherapy; type: in vivo, human; conditions: one week on YEL002, subject on chemotherapy
Source text: They are extremely happy and all their doctors are happy too and told them that they need to continue their experimental therapy.

[14] = Patient testimonial: subject post-chemotherapy, coughing and wheezing; type: in vivo, human; conditions: one hour after treatment
Source text: According to another patient testimonial, one subject post-chemotherapy had coughing and wheezing symptoms and went downhill very fast and their child was worried that they were dying.

[15] = Patient testimonial: heavy smoker, smoker's leg and hair loss; type: in vivo, human; conditions: one week after treatment
Source text: According to another patient testimonial, one subject was a heavy smoker and they had all kinds of inflammation problems including smoker's leg which were oozing lymph liquid and could not heal for many years.

[16] = Patient testimonial: nose spray in oil, allergic attacks; type: in vivo, human; conditions: dissolved in oil, nose spray 2-4 times a day
Source text: According to another patient testimonial, one subject dissolved YEL002 in oil and used that oil to spray their nose 2-4 times a day.

SMILES: COc1ccc2cc(-c3nc4ccc(C)cn4c3NCc3ccco3)c(=O)[nH]c2c1 [YEL002]
- mice survived ([1]; LD100 irradiation, IP 24 hours after radiation and another four doses in 24 hours intervals, without treatment 100% died after 10 to 15 days): 100%
- life span of surviving irradiated mice ([1]; many of the surviving mice): more than 2 years
- lived longer than without injections [2]: 33%
- lymphoma incidence after radiation exposure [3]: 40%
- protection of cancer cell lines from radiation killing [4]: not protected
- number of different proteins induced ([5]; human keratinocytes, anti-inflammatory, DNA repair and neuroprotective proteins): 244
- number of neuroprotective functions induced ([5]; proteomics): 9
- side effects [6]: no side effects
- solubility [7]: fat soluble
- symptoms of coughing and diarrhea [8]: reduced symptoms of coughing and diarrhea
- periodontics or receding gums [9]: healed
- need for eyeglasses ([10]; another subject who had 6 diopters): does not require eyeglasses any longer
- eye sight deficiency fixed, astigmatism ([10]; in 4 weeks): 1 astigmatism
- eye sight deficiency fixed, diopters ([10]; in 4 weeks): 2 diopters
- blood [11]: thinner
- varicose and spider veins [11]: fixes varicose and spider veins
- levels of liver damage [12]: normal and below the cutoff
- body weight gained [13]: 2 kg
- vomiting [13]: completely stopped
- coughing and wheezing symptoms [14]: completely alleviated
- hair loss [15]: completely stopped
- smoker's leg condition [15]: completely healed
- allergic attacks such as sneezing and runny nose [16]: completely prevented all allergic attacks
